Experimental findings from PubChem BioAssay (NCI) are described below.

Among the test systems are K-562 leukemia; SF-268 CNS; RXF 393 renal; CAKI-1 renal; HL-60(TB) leukemia; HOP-92 NSCLC; TK-10 renal; KM12 colon; HCC-2998 colon; SK-OV-3 ovarian.
Assay in all cases: DTP human tumour cell line panel, 48 h

The structures appear in SMILES notation.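 Where inhibition never reached the appropriate level, the endpoint shown equals the highest concentration tested. Otherwise, values were interpolated linearly from a five-concentration, 48-hour dose response in 96-well plates. GI50 marks 50% less growth. TGI: total growth inhibition.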

For the compound `CC1CCCC(C(O)CC2CC(=O)NC(=O)C2)C1O` (stereo unspecified), the TGI with K-562 leukemia, in the test with SF-268 CNS, in the test on RXF 393 renal, with CAKI-1 renal, in the test with HL-60(TB) leukemia and in the test with HOP-92 NSCLC was greater than 100 µM throughout. The TGI in the test on TK-10 renal, in the test with KM12 colon, in the test on HCC-2998 colon and in the test on SK-OV-3 ovarian was greater than 100 µM in each case.

As to `O=C(CCN1CCN(c2ccccc2)CC1)N1CCc2c([nH]c3ccccc23)C1c1cccnc1` (stereo unspecified), the total growth inhibition concentration (TGI) turned out to be 45 µM with K-562 leukemia; 61 µM with RXF 393 renal; 33.5 µM in the test on CAKI-1 renal; 33.6 µM in the test with HL-60(TB) leukemia; 37.7 µM with HOP-92 NSCLC; 18.8 µM in the test on TK-10 renal. The concentration for total growth inhibition (TGI) with KM12 colon came to 36.7 µM; in the test with HCC-2998 colon, 36.1 µM; in the test with SK-OV-3 ovarian it was 33.7 µM.

`NCCOCCOCCNc1nc(-c2ccccc2)nc(N2CCN(c3ccccn3)CC2)n1`: the GI50 with K-562 leukemia was 7.87 µM; in the test on SF-268 CNS, 15.9 µM; with RXF 393 renal, 10.1 µM; with CAKI-1 renal, 15.9 µM; in the test with HL-60(TB) leukemia it was 9.47 µM; in the test with HOP-92 NSCLC it was 1840 nM. Also, the GI50 in the test with KM12 colon is 16.1 µM; with HCC-2998 colon it was 8.86 µM; with SK-OV-3 ovarian, 18.8 µM. In addition, the concentration for total growth inhibition (TGI) in the test on K-562 leukemia is 22.9 µM; in the test with SF-268 CNS it was 30.8 µM; in the test on RXF 393 renal it was 22.8 µM; in the test on CAKI-1 renal, 31.5 µM; with HL-60(TB) leukemia, 26.5 µM; with HOP-92 NSCLC, 11.1 µM. The concentration for total growth inhibition (TGI) in the test on KM12 colon worked out at 31 µM; in the test with HCC-2998 colon, 22.3 µM; in the test on SK-OV-3 ovarian it was 34.2 µM.

In the case of `Cc1nc2ccccc2c(/C=C/c2ccc(Cl)cc2)c1C(=O)/C=C/c1ccc(C(F)(F)F)cc1`, the GI50 is 0.31 µM with K-562 leukemia; 0.872 µM in the test with SF-268 CNS; 0.322 µM with RXF 393 renal; 0.386 µM in the test with CAKI-1 renal; 0.36 µM with HL-60(TB) leukemia; 1070 nM in the test on HOP-92 NSCLC. Further, the GI50 in the test with TK-10 renal was 1.69 µM; in the test with KM12 colon it was 1.28 µM; with HCC-2998 colon it was 0.393 µM; with SK-OV-3 ovarian, 1.67 µM. The TGI is greater than 100 µM in the test on K-562 leukemia; 2.78 µM in the test on SF-268 CNS; 0.988 µM in the test with RXF 393 renal; 1.52 µM in the test on CAKI-1 renal; 1.38 µM in the test on HL-60(TB) leukemia; 2.47 µM with HOP-92 NSCLC. The TGI in the test on TK-10 renal is 3.09 µM; in the test on KM12 colon, 3.46 µM; with HCC-2998 colon, 1.35 µM; in the test on SK-OV-3 ovarian, 3.1 µM.

In the case of `Cc1nnc(-c2cccc(-c3ccc(C(=O)NCC4CC4)cc3)c2)o1`, the GI50 with K-562 leukemia is greater than 25 µM; in the test with SF-268 CNS, greater than 25 µM; in the test on RXF 393 renal, greater than 25 µM; with CAKI-1 renal, greater than 25 µM; in the test with HL-60(TB) leukemia, greater than 25 µM; in the test on HOP-92 NSCLC it was greater than 25000 nM. In addition, the GI50 in the test with TK-10 renal was greater than 25 µM; in the test with KM12 colon, 15.5 µM; with HCC-2998 colon it was greater than 25 µM; in the test on SK-OV-3 ovarian, greater than 25 µM. In addition, the TGI with K-562 leukemia, in the test with SF-268 CNS, with RXF 393 renal, with CAKI-1 renal, in the test with HL-60(TB) leukemia and in the test on HOP-92 NSCLC was greater than 25 µM in each case. The TGI with TK-10 renal, in the test on KM12 colon, with HCC-2998 colon and with SK-OV-3 ovarian was greater than 25 µM in each case.

Take `Cc1csc(/C=C/C(=O)c2nnn(-c3ccnc4c(C(F)(F)F)cccc34)c2C)c1`: the GI50 in the test on K-562 leukemia is 23 µM; in the test on SF-268 CNS, 25.8 µM; with RXF 393 renal it was greater than 100 µM; in the test with CAKI-1 renal, 42.4 µM; with HL-60(TB) leukemia, 29.7 µM; in the test on HOP-92 NSCLC, 90200 nM. Also, the GI50 with TK-10 renal was 87.1 µM; with KM12 colon it was 52.7 µM; in the test on HCC-2998 colon it was 43.7 µM; with SK-OV-3 ovarian, 89.1 µM. Also, the total growth inhibition concentration (TGI) with K-562 leukemia, in the test on SF-268 CNS, in the test with RXF 393 renal, in the test on CAKI-1 renal, in the test with HL-60(TB) leukemia and in the test on HOP-92 NSCLC was greater than 100 µM throughout. For the same compound, the concentration for total growth inhibition (TGI) with TK-10 renal, in the test with KM12 colon, with HCC-2998 colon and in the test with SK-OV-3 ovarian was greater than 100 µM each time.

For `Cc1cccc(C(C)(C)C)c1NC(=O)CC1C(=O)Nc2ccccc2S1(=O)=O` (stereo unspecified), the TGI was 13 µM in the test on K-562 leukemia; 25.5 µM in the test on SF-268 CNS; 29 µM in the test on RXF 393 renal; 31.3 µM with CAKI-1 renal; 10.7 µM with HL-60(TB) leukemia; 25.3 µM in the test on HOP-92 NSCLC. Further, the total growth inhibition concentration (TGI) in the test with TK-10 renal is 42 µM; with HCC-2998 colon, 20.5 µM.

As to `COc1ccc2ccccc2c1C1NC(=O)c2ccccc2N1` (stereo unspecified), the TGI is greater than 100 µM in the test with SF-268 CNS; greater than 23.6 µM with RXF 393 renal; greater than 85.2 µM in the test with CAKI-1 renal; 0.877 µM with HL-60(TB) leukemia; greater than 80.6 µM in the test with HOP-92 NSCLC; greater than 100 µM with TK-10 renal. Further, the total growth inhibition concentration (TGI) with KM12 colon turned out to be 19.9 µM; in the test on HCC-2998 colon, 5.92 µM; in the test on SK-OV-3 ovarian, 9.29 µM.

For the compound `C[n+]1c2cc(N)ccc2cc2ccc(N)cc21`, the GI50 in the test with K-562 leukemia was 1.18 µM [middle of 4 runs]; with SF-268 CNS it was 572 nM [middle of 4 runs]; in the test on CAKI-1 renal it was 1.04 µM [middle of 4 runs]; with HL-60(TB) leukemia it was 2.83 µM [middle of 4 runs]; in the test on TK-10 renal, 1.43 µM [middle of 4 runs]; with HCC-2998 colon it was 925 nM [middle of 4 runs]. Besides, the TGI with SF-268 CNS was 3.47 µM [middle of 4 runs]; in the test on RXF 393 renal it was 3.59 µM [middle of 4 runs]; with CAKI-1 renal it was 9.03 µM [middle of 4 runs]; in the test on HL-60(TB) leukemia, 9.76 µM [middle of 4 runs]; in the test on HOP-92 NSCLC it was 5.78 µM [middle of 4 runs]; with TK-10 renal, 9.33 µM [middle of 4 runs]. In addition, the TGI in the test on HCC-2998 colon was 3.43 µM [middle of 4 runs].

As to `Oc1ccc(C(c2ccc(O)cc2)c2ccc(O)cc2)cc1`, the TGI with SF-268 CNS was greater than 100 µM; in the test on RXF 393 renal, 39.5 µM; with CAKI-1 renal, 40 µM; in the test with HL-60(TB) leukemia it was 41.5 µM; with HOP-92 NSCLC, 60.5 µM; with TK-10 renal it was 63.4 µM. The TGI was determined as 32.4 µM with KM12 colon, 40 µM with HCC-2998 colon and 42 µM in the test with SK-OV-3 ovarian.
